Legend:
Format in all cases: in vivo
[1] = tested on: directly sown rice; test: Test Example 3: soil treatment, effect on crop; b: directly sown rice; details: treatment dosage 315 g/ha
How it was run: (§1)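 Crop and weed responses were judged three weeks after a uniform surface spray of the water-diluted emulsion at the given g/ha rate. Seeds sat beneath about 1.5 cm of sterilized diluvial soil, and boxes stood in a greenhouse at 25 to 30° C.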

[2] = tested on: redroot pigweed; test: Test Example 3: weedkilling efficacy through soil treatment; L: redroot pigweed; details: treatment dosage 315 g/ha
How it was run: as §1

[3] = tested on: black-grass; test: Test Example 4: weedkilling efficacy by foliar treatment; H: black-grass; details: treatment dosage 315 g/ha
How it was run: (§2)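 Seeds are spot-sown into sterilized diluvial soil and covered with about 1.5 cm of soil. After 14 days' greenhouse growth at 25 to 30° C, plants are sprayed on stems and leaves with diluted emulsion at the stated g/ha rate, then scored at 3 weeks.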

[4] = tested on: chickweed; test: Test Example 3: weedkilling efficacy through soil treatment; N: chickweed; details: treatment dosage 315 g/ha
How it was run: as §1

[5] = tested on: corn; test: Test Example 3: soil treatment, effect on crop; c: corn; details: treatment dosage 315 g/ha
How it was run: as §1

[6] = tested on: corn; test: Test Example 4: foliar treatment, effect on crop; c: corn; details: treatment dosage 315 g/ha
How it was run: as §2

[7] = tested on: black-grass; test: Test Example 3: weedkilling efficacy through soil treatment; H: black-grass; details: treatment dosage 315 g/ha
How it was run: as §1

[8] = tested on: soybean; test: Test Example 4: foliar treatment, effect on crop; d: soybean; details: treatment dosage 315 g/ha
How it was run: as §2

[9] = tested on: green foxtail; test: Test Example 4: weedkilling efficacy by foliar treatment; E: green foxtail; details: treatment dosage 315 g/ha
How it was run: as §2

[10] = tested on: birds-eye speedwell; test: Test Example 4: weedkilling efficacy by foliar treatment; p: birds-eye speedwell; details: treatment dosage 315 g/ha
How it was run: as §2

[11] = tested on: fig-leafed goosefoot; test: Test Example 3: weedkilling efficacy through soil treatment; M: fig-leafed goosefoot; details: treatment dosage 315 g/ha
How it was run: as §1

[12] = tested on: wild oat; test: Test Example 3: weedkilling efficacy through soil treatment; G: wild oat; details: treatment dosage 315 g/ha
How it was run: as §1

[13] = tested on: catchweed; test: Test Example 3: weedkilling efficacy through soil treatment; O: catchweed; details: treatment dosage 315 g/ha
How it was run: as §1

[14] = tested on: catchweed; test: Test Example 4: weedkilling efficacy by foliar treatment; O: catchweed; details: treatment dosage 315 g/ha
How it was run: as §2

[15] = tested on: birds-eye speedwell; test: Test Example 3: weedkilling efficacy through soil treatment; p: birds-eye speedwell; details: treatment dosage 315 g/ha
How it was run: as §1

[16] = tested on: chickweed; test: Test Example 4: weedkilling efficacy by foliar treatment; N: chickweed; details: treatment dosage 315 g/ha
How it was run: as §2

[17] = tested on: directly sown rice; test: Test Example 4: foliar treatment, effect on crop; b: directly sown rice; details: treatment dosage 315 g/ha
How it was run: as §2

[18] = tested on: green foxtail; test: Test Example 3: weedkilling efficacy through soil treatment; E: green foxtail; details: treatment dosage 315 g/ha
How it was run: as §1

[19] = tested on: wheat; test: Test Example 4: foliar treatment, effect on crop; e: wheat; details: treatment dosage 315 g/ha
How it was run: as §2

[20] = tested on: fig-leafed goosefoot; test: Test Example 4: weedkilling efficacy by foliar treatment; M: fig-leafed goosefoot; details: treatment dosage 315 g/ha
How it was run: as §2

[21] = tested on: bulrush; test: Test Example 2: weedkilling efficacy, growth period weed treatment in the submerged state; B: bulrush; details: treatment dosage 252 g/ha
How it was run: (§3)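 Weeds treated at the 1-2 leaf stage by application of diluted emulsion onto floodwater (4 cm depth, alluvial soil) at specified g/ha. Grown in greenhouse at 25 to 30° C; herbicidal effect rated three weeks after treatment.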

[22] = tested on: oval-leafed pondweed; test: Test Example 1: weedkilling efficacy, preemergent weed treatment in the submerged state; C: oval-leafed pondweed; details: treatment dosage 252 g/ha
How it was run: (§4)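 Pre-emergence application onto floodwater (4 cm, alluvial soil) on the day of sowing, dose expressed as g/ha from diluted emulsion formulation. Weeds sown with 2.5-leaf transplanted rice as crop; plants held at 25–30 °C in greenhouse and scored against assessment criteria after 3 weeks.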

[23] = tested on: Indian mallow; test: Test Example 4: weedkilling efficacy by foliar treatment; K: Indian mallow; details: treatment dosage 315 g/ha
How it was run: as §2

[24] = tested on: barnyard grass; test: Test Example 1: weedkilling efficacy, preemergent weed treatment in the submerged state; A: barnyard grass; details: treatment dosage 252 g/ha
How it was run: as §4

[25] = tested on: wild oat; test: Test Example 4: weedkilling efficacy by foliar treatment; G: wild oat; details: treatment dosage 315 g/ha
How it was run: as §2

[26] = tested on: barnyard grass; test: Test Example 2: weedkilling efficacy, growth period weed treatment in the submerged state; A: barnyard grass; details: treatment dosage 252 g/ha
How it was run: as §3

[27] = tested on: wheat; test: Test Example 3: soil treatment, effect on crop; e: wheat; details: treatment dosage 315 g/ha
How it was run: as §1

[28] = tested on: beet; test: Test Example 4: foliar treatment, effect on crop; f: beet; details: treatment dosage 315 g/ha
How it was run: as §2

[29] = tested on: Italian ryegrass; test: Test Example 3: weedkilling efficacy through soil treatment; I: Italian ryegrass; details: treatment dosage 315 g/ha
How it was run: as §1

[30] = tested on: redroot pigweed; test: Test Example 4: weedkilling efficacy by foliar treatment; L: redroot pigweed; details: treatment dosage 315 g/ha
How it was run: as §2

[31] = tested on: crabgrass; test: Test Example 3: weedkilling efficacy through soil treatment; D: crabgrass; details: treatment dosage 315 g/ha
How it was run: as §1

[32] = tested on: soybean; test: Test Example 3: soil treatment, effect on crop; d: soybean; details: treatment dosage 315 g/ha
How it was run: as §1

[33] = tested on: beet; test: Test Example 3: soil treatment, effect on crop; f: beet; details: treatment dosage 315 g/ha
How it was run: as §1

[34] = tested on: transplanted rice; test: Test Example 1: preemergent weed treatment in the submerged state, effect on crop; a: transplanted rice; details: treatment dosage 252 g/ha
How it was run: as §4

[35] = tested on: bulrush; test: Test Example 1: weedkilling efficacy, preemergent weed treatment in the submerged state; B: bulrush; details: treatment dosage 252 g/ha
How it was run: as §4

[36] = tested on: Italian ryegrass; test: Test Example 4: weedkilling efficacy by foliar treatment; I: Italian ryegrass; details: treatment dosage 315 g/ha
How it was run: as §2

[37] = tested on: oval-leafed pondweed; test: Test Example 2: weedkilling efficacy, growth period weed treatment in the submerged state; C: oval-leafed pondweed; details: treatment dosage 252 g/ha
How it was run: as §3

[38] = tested on: crabgrass; test: Test Example 4: weedkilling efficacy by foliar treatment; D: crabgrass; details: treatment dosage 315 g/ha
How it was run: as §2

[39] = tested on: Indian mallow; test: Test Example 3: weedkilling efficacy through soil treatment; K: Indian mallow; details: treatment dosage 315 g/ha
How it was run: as §1

Structure (SMILES): CC1=C(c2cccnc2F)C(=O)N(C(C)(C)C(=O)Nc2cc(Br)ccn2)CO1 [B-2-09]
- b (directly sown rice) effect on crop grade [1]: 3 (weed kill ratio 40% or more, less than 70%)
- L (redroot pigweed) weedkilling efficacy grade [2]: 0 (weed kill ratio 5% or less (practically no effect))
- H (black-grass) weedkilling efficacy grade [3]: 4 (weed kill ratio 70% or more, less than 90%)
- N (chickweed) weedkilling efficacy grade [4]: 2 (weed kill ratio 20% or more, less than 40%)
- c (corn) effect on crop grade [5]: 0 (weed kill ratio 5% or less (practically no effect))
- c (corn) effect on crop grade [6]: 0 (weed kill ratio 5% or less (practically no effect))
- H (black-grass) weedkilling efficacy grade [7]: 4 (weed kill ratio 70% or more, less than 90%)
- d (soybean) effect on crop grade [8]: 0 (weed kill ratio 5% or less (practically no effect))
- E (green foxtail) weedkilling efficacy grade [9]: 5 (weed kill ratio 90% or more, (practically complete withering))
- P (birds-eye speedwell) weedkilling efficacy grade [10]: 4 (weed kill ratio 70% or more, less than 90%)
- M (fig-leafed goosefoot) weedkilling efficacy grade [11]: 3 (weed kill ratio 40% or more, less than 70%)
- G (wild oat) weedkilling efficacy grade [12]: 3 (weed kill ratio 40% or more, less than 70%)
- O (catchweed) weedkilling efficacy grade [13]: 3 (weed kill ratio 40% or more, less than 70%)
- O (catchweed) weedkilling efficacy grade [14]: 1 (weed kill ratio 5% or more, less than 20%)
- P (birds-eye speedwell) weedkilling efficacy grade [15]: 4 (weed kill ratio 70% or more, less than 90%)
- N (chickweed) weedkilling efficacy grade [16]: 3 (weed kill ratio 40% or more, less than 70%)
- b (directly sown rice) effect on crop grade [17]: 5 (weed kill ratio 90% or more, (practically complete withering))
- E (green foxtail) weedkilling efficacy grade [18]: 5 (weed kill ratio 90% or more, (practically complete withering))
- e (wheat) effect on crop grade [19]: 0 (weed kill ratio 5% or less (practically no effect))
- M (fig-leafed goosefoot) weedkilling efficacy grade [20]: 4 (weed kill ratio 70% or more, less than 90%)
- B (bulrush) weedkilling efficacy grade [21]: 5 (weed kill ratio 90% or more, (practically complete withering))
- C (oval-leafed pondweed) weedkilling efficacy grade [22]: 5 (weed kill ratio 90% or more, (practically complete withering))
- K (Indian mallow) weedkilling efficacy grade [23]: 0 (weed kill ratio 5% or less (practically no effect))
- A (barnyard grass) weedkilling efficacy grade [24]: 5 (weed kill ratio 90% or more, (practically complete withering))
- G (wild oat) weedkilling efficacy grade [25]: 0 (weed kill ratio 5% or less (practically no effect))
- A (barnyard grass) weedkilling efficacy grade [26]: 4 (weed kill ratio 70% or more, less than 90%)
- e (wheat) effect on crop grade [27]: 0 (weed kill ratio 5% or less (practically no effect))
- f (beet) effect on crop grade [28]: 1 (weed kill ratio 5% or more, less than 20%)
- I (Italian ryegrass) weedkilling efficacy grade [29]: 5 (weed kill ratio 90% or more, (practically complete withering))
- L (redroot pigweed) weedkilling efficacy grade [30]: 0 (weed kill ratio 5% or less (practically no effect))
- D (crabgrass) weedkilling efficacy grade [31]: 5 (weed kill ratio 90% or more, (practically complete withering))
- d (soybean) effect on crop grade [32]: 0 (weed kill ratio 5% or less (practically no effect))
- f (beet) effect on crop grade [33]: 1 (weed kill ratio 5% or more, less than 20%)
- a (transplanted rice) effect on crop grade [34]: 1 (weed kill ratio 5% or more, less than 20%)
- B (bulrush) weedkilling efficacy grade [35]: 5 (weed kill ratio 90% or more, (practically complete withering))
- I (Italian ryegrass) weedkilling efficacy grade [36]: 4 (weed kill ratio 70% or more, less than 90%)
- C (oval-leafed pondweed) weedkilling efficacy grade [37]: 3 (weed kill ratio 40% or more, less than 70%)
- D (crabgrass) weedkilling efficacy grade [38]: 5 (weed kill ratio 90% or more, (practically complete withering))
- K (Indian mallow) weedkilling efficacy grade [39]: 0 (weed kill ratio 5% or less (practically no effect))

From patent US9738634B2, “Heterocyclic amide compound and herbicide” (SYNGENTA PARTICIPATIONS AG, priority 2013, dated 2017)
